From paper PMC8704389, “New Insights into the Hypotensins from Tityus serrulatus Venom: Pro-Inflammatory and Vasopeptidases Modulation Activities” (Toxins, 2021)
No end group written: not given here.

Columns and labels:
[1] = system: T1, ACE; assay: Stability of peptides against ACE (susceptibility to hydrolysis, RP-HPLC); type: in vitro ADME; conditions: rabbit, isolated ACE (angiotensin-converting enzyme); 30 µM peptide, ACE 3.0 ng, Tris HCl 100 mM, NaCl 50 mM, ZnCl2 10 µM, pH 7.0, 4 h, 37 °C, RP-HPLC C18, UV 214 nm; read-out: hydrolysis products after incubation with ACE
T1 construct: Angiotensin Converting Enzyme (ACE) from rabbit lung; purchased Sigma-Aldrich; host or cells: rabbit lung tissue
Description: Figure 1 Analysis of the susceptibility to hydrolysis of the hypotensins over the vasopeptidases NEP and ACE. Incubations were carried out in Tris HCl 100 mM, NaCl 50 mM and ZnCl2 10 µM, pH 7.0, for the ACE assays, and, for the NEP assays, in Tris HCl 50 mM, pH 7.5 buffer, for four hours at 37 °C. (A) TsHpt-I control (black line) and after incubation with NEP (red line). (B) TsHpt-II control (black line) and TsHpt-II incubated with NEP (red line). (C) TsHpt-I control (black line) and incubated with ACE (red line). (D) TsHpt-II control (black line) and after incubation with ACE (red line). The samples of negative and experimental controls (A) TsHpt-I and (B) TsHpt-II are shown on the left and right, respectively. The hydrolysis products were considered ≤5%. The gradient used was 20% to 60% solvent B in 20 min, and 60% to 100% solvent B in 5 min (flow 1 mL/min, absorbance at 214 nm). Restek Ultra C-18 5 µm column, 250 × 4.6 mm.
The synthetic peptides TsHpt-I and TsHpt-II (30 µM) were incubated with ACE (3.0 ng), in Tris HCl 100 mM, NaCl 50 mM and ZnCl2 10 µM, pH 7.0 buffer, and NEP (1.5 ng), in Tris HCl 50 mM, pH 7.5 buffer, at 37 °C for 4 h. Samples containing only the synthetic peptides were used as the negative control. After incubation, samples were analyzed by reverse phase chromatography on RP-HPLC (Shimadzu, Kyoto, Japan), using a Restek Ultra C-18 column (5 µm, 250 × 4.6 mm). […]

[2] = system: murine peritoneal macrophages; assay: Cytokine production by murine peritoneal macrophages, CBA method; type: cell-based, BALB/c mice; conditions: 24 h; for release of IL-10, IL-12p70, IFN-γ and MCP-1: 10, 50 and 100 µg/mL, data not shown
Description: Figure 4 Cytokine production by murine peritoneal macrophages stimulated in vitro with TsHpt-I and -II. Peritoneal exudate macrophages from naïve BALB/c mice were cultured for 24 h in the presence of TsHpt-I (A,C) and -II (B,D), at concentrations of 10 µg/mL, 50 µg/mL and 100 µg/mL. Cells cultured with medium alone or in the presence of 5 µg/mL LPS were used as negative and positive controls, respectively. The concentrations of TNF (A,B) and IL-6 (C,D) were determined by the CBA method, according to the manufacturer’s instructions. The results represent the mean ± SD of three independent experiments performed in triplicate. * p < 0.05.
Peritoneal exudate cells (BALB/c naïve mice, n = 6) were collected by two washes with 5 mL of RPMI medium. The cells obtained were washed twice with RMPI medium, at 400 g, for 10 min, at 18 °C, and resuspended in R10 medium (RPMI + 10% fetal cow serum). After counting in a Neubauer chamber, in the presence of Trypan blue, the cell concentration was adjusted to 2 × 10^6 cells/mL. Cells were distributed into 96-well culture plates (2 × 10^5 cells/100 µL/well) and incubated for 2 h at 37 °C and 5% CO2. After incubation, non-adherent cells were discarded, and adherent cells (macrophages) were resuspended in R10 medium containing the respective tested stimuli, at different concentrations, in triplicates, in a final volume of 200 µL/well. Cells resuspended in R10 medium were used as a negative control, and cells stimulated with LPS (5 µg/mL) as a positive control. Cells were then incubated for 24 h at 37 °C and 5% CO2. After this period, the culture supernatants were collected and stored at −80 °C, for subsequent dosage of cytokines, and cell viability was determined by MTT assay.
The concentration of pro- and anti-inflammatory cytokines (IL-6, IL-10, IL-12p70, […], MCP-1 and TNF) in the samples incubated with both hypotensins (10 µg/mL, 50 µg/mL and 100 µg/mL) was determined by the CBA method (BD Cytometric Bead Array Mouse Inflammation Kit), according to the manufacturer’s instructions. The samples were acquired in a BD FACSCanto II flow cytometer, and the data were analyzed using BD FCAP Array version 3.0 software.

[3] = system: murine peritoneal macrophages; assay: Phagocytic activity of murine peritoneal macrophages (Saccharomyces cerevisiae); type: cell-based, BALB/c mice; conditions: 100 µg/mL, 24 h, then 1 h with Saccharomyces cerevisiae; duplicate; versus negative control
Description: Figure 5 Phagocytic activity of the murine peritoneal macrophages stimulated in vitro with TsHpt-I and -II. Peritoneal exudate macrophages from naïve BALB/c mice were cultured on glass coverslips for 24 h in culture medium or in the presence of LPS (5 μg/mL) or TsHpt-I and -II (100 μg/mL). After this period, the cells were incubated for 1 h with a suspension of Saccharomyces cerevisiae. Coverslips were washed, fixed and stained by Giemsa. (A) Phagocytosis images in 400× magnification. (B) The phagocytic index was calculated based on the percentage of phagocytic cells and on the average number of yeasts per cell, by counting approximately 200 cells per coverslip in 1000× magnification. The results represent one of two reproducible experiments performed in duplicate (mean ± SD). * p < 0.05.
Peritoneal macrophages from naïve BALB/c mice (n = 6) were obtained as described above (item 5.5.1). Cells were distributed in 24-well culture plates (5 × 10^5 cells/500 µL/well), with glass coverslips inside, and incubated for 2 h at 37 °C and 5% CO2. […] Phagocytosis was evaluated by immersion optical microscopy (1000×) and quantified by counting approximately 200 cells per cover slip. The percentage of phagocytic cells and the average number of internalized yeasts per phagocytic cell were calculated. […]

[4] = 100 µg/mL, three independent experiments in triplicate

**Q.** How did the metabolised at 4 h, 30 µM [1] turn out when AEIDFSGIPEDIIKEIKETNAKPPA [TsHpt-II] was run?
**A.** ≤ 5%

**Q.** And the “release of IL-6” value [2, 4]?
**A.** induced the release of IL-6

**Q.** What about the “release of TNF” value [2, 4] of the same sequence?
**A.** release of significant levels of TNF

**Q.** And the “release of IL-10, IL-12p70, IFN-γ and MCP-1” value [2]?
**A.** None of the peptides were able to induce the release

**Q.** What about the phagocytic index [3] of the same sequence?
**A.** significant increase in the phagocytic index

**Q.** What does the source list for AEIDFSGIPEDIIKQIKETNAKPPA [TsHpt-I]?
**A.** metabolised at 4 h, 30 µM [1]: ≤ 5%; release of TNF [2, 4]: release of significant levels of TNF; release of IL-10, IL-12p70, IFN-γ and MCP-1 [2]: None of the peptides were able to induce the release; phagocytic index [3]: significant increase in the phagocytic index
